The record followed here is ChEMBL document CHEMBL1145302, “Synthesis and antibacterial activity of C6-carbazate ketolides” (2006).

Broadly, the ED50 is the midpoint of the dose-response relation.

What all share (format): functional
Test [1] has as its system Streptococcus pneumoniae. The test is described as follows: Antibacterial activity against erythromycin-resistant Streptococcus pneumoniae OC4051 containing erm(B).
The subject of test [2] is Streptococcus pneumoniae. Kind of test: Antibacterial activity against erythromycin-susceptible Streptococcus pneumoniae OC9132.
For test [3], the system named is Staphylococcus aureus. The test is described as follows: Antibacterial activity against erythromycin-susceptible Staphylococcus aureus Smith OC4172.
For test [4], the system named is Staphylococcus aureus. Kind of test: Antibacterial activity against erythromycin-susceptible Staphylococcus aureus Smith OC4172 in presence of 50% mouse serum.
The next test has as its system Haemophilus influenzae. The test is described as follows: Antibacterial activity against telithromycin-susceptible Haemophilus influenzae ATCC 49766.
Test [5] concerns Streptococcus pneumoniae. The test is described as follows: Antibacterial activity against erythromycin-resistant Streptococcus pneumoniae OC4421 containing mef(A).
In test [6] the test system is Staphylococcus haemolyticus. Kind of test: Antibacterial activity against erythromycin resistant Staphylococcus haemolyticus OC3882 containing erm(C).
In test [7] the test system is Staphylococcus aureus. The test is described as follows: Antibacterial activity against Staphylococcus aureus Smith infected in sc dosed Swiss Webster mouse septicemia model.
Test [8] has as its system Staphylococcus aureus. The test is described as follows: Antibacterial activity against Staphylococcus aureus Smith infected in orally dosed Swiss Webster mouse septicemia model. The following applies: po.

≈ marks a conversion by molar mass, not a printed value.

Consider `CC[C@H]1OC(=O)[C@H](C)C(=O)[C@H](C)[C@@H](O[C@@H]2O[C@H](C)C[C@H](N(C)C)[C@H]2O)[C@](C)(OC(=O)NNCCc2ccc(-c3cnccn3)cc2)C[C@@H](C)C(=O)[C@H](C)[C@H]2NC(=O)O[C@@]21C`, for which the MIC in the test with Streptococcus pneumoniae [1] is 0.06 µg/mL (≈ 0.0715 µM); against Streptococcus pneumoniae [2], 0.03 µg/mL (≈ 0.0358 µM); in the test on Staphylococcus aureus [3] it was 0.25 µg/mL (≈ 0.298 µM); in the test with Staphylococcus aureus [4] it was 0.5 µg/mL; with Haemophilus influenzae, 2 µg/mL (≈ 2.38 µM); in the test on Streptococcus pneumoniae [5], 0.25 µg/mL (≈ 0.298 µM). The compound also came in with an MIC in test [6] of 0.25 µg/mL (≈ 0.298 µM).

For `CC[C@H]1OC(=O)[C@H](C)C(=O)[C@H](C)[C@@H](O[C@@H]2O[C@H](C)C[C@H](N(C)C)[C@H]2O)[C@](C)(OC(=O)NN(C)CCc2ccc(-c3ncco3)cc2)C[C@@H](C)C(=O)[C@H](C)[C@H]2NC(=O)O[C@@]21C`, the MIC against Streptococcus pneumoniae [1] stood at 0.06 µg/mL (≈ 0.0713 µM); against Streptococcus pneumoniae [2], 0.03 µg/mL (≈ 0.0356 µM); in the test with Staphylococcus aureus [3] it was 0.25 µg/mL (≈ 0.297 µM); with Staphylococcus aureus [4] it was 0.5 µg/mL; against Haemophilus influenzae, 2 µg/mL (≈ 2.38 µM); against Streptococcus pneumoniae [5] it was 0.12 µg/mL (≈ 0.143 µM). In [6], the MIC was found to be 0.5 µg/mL (≈ 0.594 µM).

As to `CC[C@H]1OC(=O)[C@H](C)C(=O)[C@H](C)[C@@H](O[C@@H]2O[C@H](C)C[C@H](N(C)C)[C@H]2O)[C@](C)(OC(=O)N(C)N(C)CCc2ccc(-c3cnccn3)cc2)C[C@@H](C)C(=O)[C@H](C)[C@H]2NC(=O)O[C@@]21C`, the MIC against Streptococcus pneumoniae [1] came out at 0.5 µg/mL (≈ 0.577 µM); with Streptococcus pneumoniae [2], 0.06 µg/mL (≈ 0.0692 µM); against Staphylococcus aureus [3], 2 µg/mL (≈ 2.31 µM); in the test with Staphylococcus aureus [4], 4 µg/mL; with Haemophilus influenzae, 16 µg/mL (≈ 18.5 µM); in the test with Streptococcus pneumoniae [5], 0.5 µg/mL (≈ 0.577 µM). Besides, the MIC in [6] came out at 8 µg/mL (≈ 9.23 µM).

Consider `CC[C@H]1OC(=O)[C@H](C)C(=O)[C@H](C)[C@@H](O[C@@H]2O[C@H](C)C[C@H](N(C)C)[C@H]2O)[C@](C)(OC(=O)NNCCc2ccc(-c3ncccn3)cc2)C[C@@H](C)C(=O)[C@H](C)[C@H]2NC(=O)O[C@@]21C`, for which the MIC came out at 0.12 µg/mL (≈ 0.143 µM) against Streptococcus pneumoniae [1]; 0.03 µg/mL (≈ 0.0358 µM) against Streptococcus pneumoniae [2]; 0.25 µg/mL (≈ 0.298 µM) against Staphylococcus aureus [3]; 0.25 µg/mL in the test with Staphylococcus aureus [4]; 4 µg/mL (≈ 4.77 µM) in the test on Haemophilus influenzae; 0.12 µg/mL (≈ 0.143 µM) in the test on Streptococcus pneumoniae [5]. Further, the MIC in [6] was found to be 0.25 µg/mL (≈ 0.298 µM).

For the compound `CC[C@H]1OC(=O)[C@H](C)C(=O)[C@H](C)[C@@H](O[C@@H]2O[C@H](C)C[C@H](N(C)C)[C@H]2O)[C@](C)(OC(=O)NN(C)CCc2ccc(-c3ncccn3)s2)C[C@@H](C)C(=O)[C@H](C)[C@H]2NC(=O)O[C@@]21C`, the MIC against Streptococcus pneumoniae [1] amounted to 0.06 µg/mL (≈ 0.0698 µM); against Streptococcus pneumoniae [2] it was 0.03 µg/mL (≈ 0.0349 µM); with Staphylococcus aureus [3], 0.25 µg/mL (≈ 0.291 µM); in the test on Staphylococcus aureus [4], 0.5 µg/mL; in the test on Haemophilus influenzae, 2 µg/mL (≈ 2.33 µM); against Streptococcus pneumoniae [5], 0.12 µg/mL (≈ 0.14 µM). This compound registered an MIC in test [6] of 0.25 µg/mL (≈ 0.291 µM). Also, the ED50 in the test on Staphylococcus aureus [7] was 4.8 mg/kg; in the test on Staphylococcus aureus [8], greater than 20 mg/kg.

With `CC[C@H]1OC(=O)[C@H](C)C(=O)[C@H](C)[C@@H](O[C@@H]2O[C@H](C)C[C@H](N(C)C)[C@H]2O)[C@](C)(OC(=O)NN(C)Cc2ccc(-c3ncccn3)cc2)C[C@@H](C)C(=O)[C@H](C)[C@H]2NC(=O)O[C@@]21C`, the MIC is 0.5 µg/mL (≈ 0.596 µM) with Streptococcus pneumoniae [1]; 0.06 µg/mL (≈ 0.0715 µM) with Streptococcus pneumoniae [2]; 2 µg/mL (≈ 2.38 µM) with Staphylococcus aureus [3]; 8 µg/mL in the test with Staphylococcus aureus [4]; 4 µg/mL (≈ 4.77 µM) in the test with Haemophilus influenzae; 1 µg/mL (≈ 1.19 µM) against Streptococcus pneumoniae [5]. The compound further gave an MIC in [6] of 2 µg/mL (≈ 2.38 µM).

With `CC[C@H]1OC(=O)[C@H](C)C(=O)[C@H](C)[C@@H](O[C@@H]2O[C@H](C)C[C@H](N(C)C)[C@H]2O)[C@](C)(OC(=O)NN(C)CCc2ccc(-c3ncccn3)cc2)C[C@@H](C)C(=O)[C@H](C)[C@H]2NC(=O)O[C@@]21C`, the MIC stood at 0.06 µg/mL (≈ 0.0703 µM) with Streptococcus pneumoniae [1]; 0.03 µg/mL (≈ 0.0352 µM) against Streptococcus pneumoniae [2]; 0.25 µg/mL (≈ 0.293 µM) with Staphylococcus aureus [3]; 0.5 µg/mL with Staphylococcus aureus [4]; 4 µg/mL (≈ 4.69 µM) against Haemophilus influenzae; 0.25 µg/mL (≈ 0.293 µM) in the test with Streptococcus pneumoniae [5]. Further, the MIC in [6] is 0.5 µg/mL (≈ 0.586 µM). Besides, the ED50 is 3.3 mg/kg with Staphylococcus aureus [7] and greater than 20 mg/kg in the test with Staphylococcus aureus [8].

In the case of `CC[C@H]1OC(=O)[C@H](C)C(=O)[C@H](C)[C@@H](O[C@@H]2O[C@H](C)C[C@H](N(C)C)[C@H]2O)[C@](C)(OC(=O)NN)C[C@@H](C)C(=O)[C@H](C)[C@H]2NC(=O)O[C@@]21C`, the MIC in the test with Streptococcus pneumoniae [1] was determined as 8 µg/mL (≈ 12.2 µM); in the test on Streptococcus pneumoniae [2], 0.5 µg/mL (≈ 0.761 µM); in the test on Staphylococcus aureus [3], 8 µg/mL (≈ 12.2 µM); in the test on Staphylococcus aureus [4], 2 µg/mL; against Haemophilus influenzae, 8 µg/mL (≈ 12.2 µM); with Streptococcus pneumoniae [5] it was 8 µg/mL (≈ 12.2 µM). The compound also yielded an MIC in [6] of 16 µg/mL (≈ 24.4 µM).

With `CC[C@H]1OC(=O)[C@H](C)[C@@H](O[C@H]2C[C@@](C)(OC)[C@@H](O)[C@H](C)O2)[C@H](C)[C@@H](O[C@@H]2O[C@H](C)C[C@H](N(C)C)[C@H]2O)[C@](C)(O)C[C@@H](C)C(=O)[C@H](C)[C@@H](O)[C@]1(C)O` [ERYTHROMYCIN], the MIC in the test on Streptococcus pneumoniae [1] is greater than 16 µg/mL; in the test on Streptococcus pneumoniae [2], 0.06 µg/mL (≈ 0.0818 µM); with Staphylococcus aureus [3], 1 µg/mL (≈ 1.36 µM); in the test with Staphylococcus aureus [4], 0.06 µg/mL; in the test on Haemophilus influenzae it was 8 µg/mL (≈ 10.9 µM); with Streptococcus pneumoniae [5], 4 µg/mL (≈ 5.45 µM). Moreover, the MIC in test [6] was greater than 16 µg/mL.
